Reference: article PMC9011347, “Small-Molecule Inhibitors Targeting Lipolysis in Human Adipocytes” (Journal of the American Chemical Society, 2022)

Experiment: Stability of NG-497 exposed to HepG2 cells
Format: in vitro ADME
Conditions: human, cells treated 1 h with 40 μM NG-497, inhibitor removed, DMEM 10% FCS, read-out: half-life (T1/2) when exposed to HepG2 cells
Description: Figure 2 Development and characterization of the human ATGL inhibitor NG-497. (a) Structure and IC50 values of human ATGL inhibitors. (b) Dose-dependent inhibition of human ATGL by respective inhibitors. (c) ATGL activity was determined at the indicated substrate concentrations in the absence and presence of NG-497 (0.5 μM). Ki was determined by nonlinear regression analysis using GraphPad Prism. Lineweaver–Burk analysis of ATGL inhibition is shown in the inset. (d) Toxicity of NG-497 in HepG2 cells was determined after 24 h incubation at indicated concentrations. Cisplatin and DMSO were used as positive and negative controls, respectively. Cytotoxicity was determined using the Roche LDH Kit and calculated as relative LDH release compared to fully lysed cells. (e) Stability of NG-497 was analyzed via ultrahigh-performance liquid chromatography–mass spectrometry (UHPLC-MS) after incubation in human serum for 0 or 3 h at 37 °C. Atglistatin and a chemically related unstable compound were used as controls. […] NG-497 concentrations/well were determined at the indicated time points using UHPLC-MS. […] Statistical significance was determined via t test (*p < 0.05; **p < 0.01; ***p < 0.001) or ANOVA followed by Bonferroni post hoc test (^###p < 0.001). […] The detected 297 lipid species of both groups were analyzed with supervised multivariate analysis OPLS-DA and are shown as a loading plot. […]

## CCOc1ccc(-c2cc(OC)cc(C(=O)OC(C)C)n2)cc1 [NG-497]
  half-life at 40 µM: 46 min
